Reference: ChEMBL document CHEMBL1201862, “PubChem BioAssay data set” (2004)
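Where inhibition never reached the appropriate level, the endpoint shown equals the highest concentration tested. Otherwise, values were interpolated linearly from a five-concentration, 48-hour dose response in 96-well plates. GI50 marks 50% less growth.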 The source made the active and inactive calls. No stated cut-off is given here; in the data, active = GI50 up to about 1.1 µM and inactive = higher.

Assays:
Experiment in all cases: DTP human tumour cell line panel, 48 h
HCC 2998 = tested on: HCC 2998
786-0 = tested on: 786-0
M14 = tested on: M14
UACC-257 = tested on: UACC-257
NCI-H226 = tested on: NCI-H226
OVCAR-5 = tested on: OVCAR-5
SN12C = tested on: SN12C
SF-268 = tested on: SF-268
HOP-92 = tested on: HOP-92
A549 = tested on: A549
SK-OV-3 = tested on: SK-OV-3
NCI-H460 = tested on: NCI-H460
CAKI-1 = tested on: CAKI-1
HT-29 = tested on: HT-29
SK-MEL-5 = tested on: SK-MEL-5
RPMI-8226 = tested on: RPMI-8226
UACC-62 = tested on: UACC-62
T47D = tested on: T47D
MDA-MB-231 = tested on: MDA-MB-231
PC-3 = tested on: PC-3

Structure (SMILES)	GI50 (HCC 2998)	GI50 (786-0)	GI50 (M14)	GI50 (UACC-257)	GI50 (NCI-H226)	GI50 (OVCAR-5)	GI50 (SN12C)	GI50 (SF-268)	GI50 (HOP-92)	GI50 (A549)	GI50 (SK-OV-3)	GI50 (NCI-H460)	GI50 (CAKI-1)	GI50 (HT-29)	GI50 (SK-MEL-5)	GI50 (RPMI-8226)	GI50 (UACC-62)	GI50 (T47D)	GI50 (MDA-MB-231)	GI50 (PC-3)
CC(=O)/C(=C\c1ccccc1)C(=O)Nc1ccccc1	> 100 µM (inactive)	> 100 µM (inactive)	> 100 µM (inactive)	> 100 µM (inactive)	> 100 µM (inactive)	> 100 µM (inactive)	> 100 µM (inactive)	> 100 µM (inactive)	> 100 µM (inactive)	> 100 µM (inactive)	> 100 µM (inactive)	> 100 µM (inactive)	> 100 µM (inactive)	> 100 µM (inactive)	> 100 µM (inactive)	> 100 µM (inactive)	> 100 µM (inactive)			
Cc1cccc(N2C(=O)C(Cl)=C(Cl)C2=O)c1	> 100 µM (inactive)	> 54.1 µM (inactive)	> 55.8 µM (inactive)	> 100 µM (inactive)	> 100 µM (inactive)	> 100 µM (inactive)	> 80.5 µM (inactive)	97.3 µM (inactive)	> 53.8 µM (inactive)	> 100 µM (inactive)	> 100 µM (inactive)	> 100 µM (inactive)	> 42.3 µM (inactive)	> 62.2 µM (inactive)	> 100 µM (inactive)	> 47.1 µM (inactive)	> 64.7 µM (inactive)			
COc1cc2cnc3c4cc(O)ccc4ccc3c2cc1OC	91 µM (inactive)	61.8 µM (inactive)	> 100 µM (inactive)	56.6 µM (inactive)	26.4 µM (inactive)	> 100 µM (inactive)	35.2 µM (inactive)	23.6 µM (inactive)	> 100 µM (inactive)	> 100 µM (inactive)	> 100 µM (inactive)	> 100 µM (inactive)	> 100 µM (inactive)	> 100 µM (inactive)	> 100 µM (inactive)	> 100 µM (inactive)	72.4 µM (inactive)			
O=C(CC(C(=O)c1ccsc1)c1ccccc1)c1cccs1 (stereo not drawn)	85.3 µM (inactive)	> 100 µM (inactive)	24.8 µM (inactive)	61 µM (inactive)	> 100 µM (inactive)	> 100 µM (inactive)	> 100 µM (inactive)	> 100 µM (inactive)	> 100 µM (inactive)		> 100 µM (inactive)	27.1 µM (inactive)	> 100 µM (inactive)	69.2 µM (inactive)	43.2 µM (inactive)	> 100 µM (inactive)	24.8 µM (inactive)	11.8 µM (inactive)	22.2 µM (inactive)	
COC(=N)/C(=C1\OC(=N)C(c2ccc(Cl)cc2)=C1O)c1ccc(Cl)cc1	> 100 µM (inactive)	> 100 µM (inactive)	> 100 µM (inactive)	> 100 µM (inactive)	> 100 µM (inactive)	> 100 µM (inactive)	> 100 µM (inactive)	> 100 µM (inactive)	> 100 µM (inactive)	> 100 µM (inactive)	> 100 µM (inactive)	> 100 µM (inactive)	> 100 µM (inactive)	> 100 µM (inactive)	> 100 µM (inactive)	81.8 µM (inactive)	> 100 µM (inactive)			
Cc1cc(=O)oc2cc(OCc3c(F)cccc3Cl)ccc12		11.6 µM (inactive)	9.35 µM (inactive)	78.5 µM (inactive)	33.3 µM (inactive)	> 100 µM (inactive)	> 100 µM (inactive)	21.4 µM (inactive)	10.5 µM (inactive)	> 100 µM (inactive)			17.2 µM (inactive)		3.66 µM (inactive)		1.12 µM (inactive)	2.49 µM (inactive)	4.07 µM (inactive)	3.56 µM (inactive)
COc1ccccc1-c1nc[nH]c1-c1ccccc1OC		35.5 µM (inactive)	19.7 µM (inactive)	25.3 µM (inactive)		37.9 µM (inactive)	38 µM (inactive)	14.4 µM (inactive)	17.3 µM (inactive)	22.6 µM (inactive)	36.1 µM (inactive)	24.3 µM (inactive)	31 µM (inactive)			29.3 µM (inactive)		37.6 µM (inactive)	21.7 µM (inactive)	18.6 µM (inactive)
Cc1nc2c(C)ccc([N+](=O)[O-])c2c(NCCCN(C)C)c1C	27.4 µM (inactive)	> 90.8 µM (inactive)	19.5 µM (inactive)	23.3 µM (inactive)	67.1 µM (inactive)	> 72.1 µM (inactive)	> 62.8 µM (inactive)	> 100 µM (inactive)	> 100 µM (inactive)	> 47.1 µM (inactive)	> 100 µM (inactive)	57 µM (inactive)	66.4 µM (inactive)	24.7 µM (inactive)	14.2 µM (inactive)	52.6 µM (inactive)	37.2 µM (inactive)	> 100 µM (inactive)		11.7 µM (inactive)
CC[C@H](C)C1=C(OC(C)=O)[N@+]2([O-])Oc3ccc(-c4c(O)c(O)c(-c5ccc(OC(C)=O)cc5)c(OC(C)=O)c4OC(C)=O)cc3O[C@]2([C@@H](C)CC)C(=O)N1O		14.1 µM (inactive)	28.2 µM (inactive)	> 50 µM (inactive)		22.9 µM (inactive)	19.4 µM (inactive)	18.8 µM (inactive)	3.84 µM (inactive)	18.8 µM (inactive)	17.3 µM (inactive)	18.5 µM (inactive)	26.3 µM (inactive)	17.6 µM (inactive)	16.4 µM (inactive)	7.85 µM (inactive)	14.7 µM (inactive)	15.1 µM (inactive)	17.8 µM (inactive)	20.6 µM (inactive)
CC1=C(C(=O)CC(=O)C(=O)Nc2cccc(C)c2C)Sc2ccccc2N1	> 100 µM (inactive)	> 100 µM (inactive)	> 100 µM (inactive)	> 100 µM (inactive)	> 100 µM (inactive)	> 100 µM (inactive)	> 100 µM (inactive)	> 100 µM (inactive)	> 100 µM (inactive)	> 100 µM (inactive)	> 100 µM (inactive)	> 100 µM (inactive)	> 100 µM (inactive)	> 100 µM (inactive)	> 100 µM (inactive)	> 100 µM (inactive)	> 100 µM (inactive)			
CN(C)C(=S)N/N=C\C(=N/NC(=S)N(C)C)c1ccccc1	7.53 µM (inactive)	7.33 µM (inactive)	5.51 µM (inactive)	> 23.4 µM (inactive)	4.61 µM (inactive)	> 30.9 µM (inactive)	6.24 µM (inactive)	4.14 µM (inactive)	3.91 µM (inactive)	5.31 µM (inactive)	12.3 µM (inactive)	1.36 µM (inactive)	7.24 µM (inactive)	5.16 µM (inactive)	9.84 µM (inactive)	4.68 µM (inactive)	8.41 µM (inactive)	1.28 µM (inactive)	19.3 µM (inactive)	
COP(=O)(OC)C(O)/C=C/c1ccco1 (stereo not drawn)		> 100 µM (inactive)	> 100 µM (inactive)	> 100 µM (inactive)	> 100 µM (inactive)	> 100 µM (inactive)	> 100 µM (inactive)	> 100 µM (inactive)	> 100 µM (inactive)	> 100 µM (inactive)	> 100 µM (inactive)		> 100 µM (inactive)	> 100 µM (inactive)	> 100 µM (inactive)	> 100 µM (inactive)	> 100 µM (inactive)	> 100 µM (inactive)		> 100 µM (inactive)
CC1=C(C(=O)Nc2ccccc2C)C(c2ccc(Cl)cc2)C(C(=O)Nc2ccccc2C)=C(C)N1	> 100 µM (inactive)	> 100 µM (inactive)	> 100 µM (inactive)	> 100 µM (inactive)	> 100 µM (inactive)	> 100 µM (inactive)	> 100 µM (inactive)	> 100 µM (inactive)	> 100 µM (inactive)	> 100 µM (inactive)	> 100 µM (inactive)	> 100 µM (inactive)	> 100 µM (inactive)	> 100 µM (inactive)	> 100 µM (inactive)	> 100 µM (inactive)	> 100 µM (inactive)			
O=C(O)C1OC1C(=O)O (stereo not drawn)	> 100 µM (inactive)	> 100 µM (inactive)	> 100 µM (inactive)	> 100 µM (inactive)	> 100 µM (inactive)	> 100 µM (inactive)	> 100 µM (inactive)	> 100 µM (inactive)	> 100 µM (inactive)	> 100 µM (inactive)	> 100 µM (inactive)	> 100 µM (inactive)	> 100 µM (inactive)	> 100 µM (inactive)	> 100 µM (inactive)	> 100 µM (inactive)	> 100 µM (inactive)	> 100 µM (inactive)	> 100 µM (inactive)	
COC(=O)C1[C@H](c2cc(OC)c(OC)c(OC)c2)OC(=O)C1(C(=O)OC)C(=O)c1ccc2c(c1)OCO2 (stereo partly drawn)	> 100 µM (inactive)	> 100 µM (inactive)	> 100 µM (inactive)	> 100 µM (inactive)	> 100 µM (inactive)	> 100 µM (inactive)	> 100 µM (inactive)	> 100 µM (inactive)	> 100 µM (inactive)	> 100 µM (inactive)	> 100 µM (inactive)	> 100 µM (inactive)	> 100 µM (inactive)	> 100 µM (inactive)	> 100 µM (inactive)	> 100 µM (inactive)	> 100 µM (inactive)			
COc1cc2c[n+](C)c3c4cc5c(cc4ccc3c2cc1OC)OCO5 [NITIDINE CHLORIDE]	2.07 µM (inactive)	2.49 µM (inactive)	17.1 µM (inactive)	26.1 µM (inactive)	3.61 µM (inactive)	1.24 µM (inactive)	0.447 µM (active)	0.126 µM (active)	2.07 µM (inactive)	0.18 µM (active)	0.877 µM (active)	1.73 µM (inactive)	2.37 µM (inactive)	1.56 µM (inactive)	5.27 µM (inactive)	2.06 µM (inactive)	1.25 µM (inactive)		2.62 µM (inactive)	2.33 µM (inactive)
